These results are taken from patent US20120214748A1, “NOVEL PEPTIDES, PROCESS FOR PREPARATION THEREOF, AND USE THEREOF” (priority 2009, published 2012).

Read-outs that look alike come from different tables or passages of the source. Bridge positions count the residues as written; N and C are the ends. Peptide text beside a SMILES is read from it.

For experiment [1], the target named is T1, Trypsin (Bos taurus, UniProt P00760).
T1 sequence (P00760 24-246): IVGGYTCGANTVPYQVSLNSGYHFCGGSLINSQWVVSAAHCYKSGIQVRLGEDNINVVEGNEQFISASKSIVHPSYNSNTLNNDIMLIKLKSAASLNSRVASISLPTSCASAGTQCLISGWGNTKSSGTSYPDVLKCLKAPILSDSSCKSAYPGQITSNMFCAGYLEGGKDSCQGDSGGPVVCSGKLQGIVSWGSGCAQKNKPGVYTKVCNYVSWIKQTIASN
Kind of experiment: Trypsin inhibition on Z-L-Lys-SBzl substrate.

The target of experiment [2] is Thrombin (Homo sapiens, UniProt P00734). Kind of experiment: Thrombin inhibition with Z-Gly-Pro-Arg-pNa substrate. The format is biochemical.
The subject of experiment [3] is blood coagulation (thrombin operation). The experiment is described as follows: Thrombin time (TT) in blood plasma. The settings on record: peptide 200 μM, FIG. 6.a. The procedure: (§1) We performed blood coagulation measurements using blood plasma taken from healthy individuals. From the blood obtained through venipuncture and treated with sodium citrate (3.8% wt/vol) the plasma was isolated by centrifugation (2000 g, 15 minutes, Jouan CR412 centrifuge).
(§2) Prothrombin time (PT) testing the extrinsic pathway of blood coagulation was measured on Sysmex® CA-500 (Sysmex, Japan) automatic system using Innovin® Reagent (Dale Behring, Marburg, Germany). Activated partial thromboplastin time (APTT) testing the intrinsic pathway of blood coagulation and thrombin time (TT) directly testing thrombin operation was measured on a Coag-A-Mate® MAX (BioMerieux, France) analyser using TriniClot™ reagent (Trinity Biotech, Wichlow, Ireland) and Reanal™ reagent (Reanal Finechemical, Hungary).
(§3) To examine the effects of peptides on blood coagulation we measured dose dependency, the results are shown on the graphs in FIG. 6. […] On the ordinates time is determined in seconds, while on the abscissas the logarithm of the inhibitor concentration is shown in μM.
(§4) FIG. 6.a illustrates an experiment for measuring thrombin time, in the course of which plasma coagulation (fibrin formation) is initiated by adding thrombin to the plasma. […] The members of this protease cascade are inhibited with peptide used in increasing concentrations (abscissa), and the time needed for coagulation is measured (ordinate).

The test system of experiment [4] is extrinsic pathway of blood coagulation. The experiment is described as follows: Prothrombin time (PT) in blood plasma. The note with it: peptide 200 μM, FIG. 6.b. The procedure:
as §1, §2, §3, §4

Experiment [5] deals with intrinsic pathway of blood coagulation. Kind of experiment: Activated partial thromboplastin time (APTT) in blood plasma. The settings on record: peptide 200 μM, FIG. 6.c. How it is done:
as §1, §2, §3, §4

In experiment [6] the test system is lectin pathway of the complement system. The experiment is described as follows: WIELISA complement assay, lectin pathway. The format is biochemical. The note with it: serum, FIG. 7. How it is done:
(§5) For measuring we used the so-called WIELISA kit (Euro-Diagnostica AB, COMPL300) developed for the selective measuring of the complement pathways, on the basis of the instructions for use attached to the kit. […] At the same time, the product detected during measuring is not a pathway-selective component, but the last element of the joint section of the activation pathways, the C5-9 complex.
(§6) The serum was diluted according to the prescriptions with the buffer belonging to the given complement pathway, it was incubated for 20 minutes at room temperature, the dilution sequence prepared from peptides was added to it, it was incubated for 20 minutes at room temperature, then it was pipetted into the appropriate wells of a special ELISA plate. In the following, washing, incubation and antibody addition was performed according to the instructions for use. It was incubated for 20 minutes with the substrate, and then the data was read at 450 nm in a spectrophotometer. A parallel belonged to each measuring point, 100% activity was represented by the serum without an inhibitor. The measurements were performed at the same time and on the same plate, from one single melted serum sample.

For experiment [7], the system named is classical pathway of the complement system. Kind of experiment: WIELISA complement assay, classical pathway. It is filed as biochemical. The settings on record: serum, FIG. 7. How it is done: as §5, §6
In experiment [8] the test system is alternative pathway of the complement system. The experiment is described as follows: WIELISA complement assay, alternative pathway. It is filed as biochemical. The settings on record: serum, FIG. 7. The procedure:
as §5, §6

Experiment [9] has as its system MASP enzymes. The experiment is described as follows: Preliminary experiments: inhibition of MASP enzymes by SGCI. The format is biochemical.
Experiment [10] relates to MASP enzymes. The experiment is described as follows: Preliminary experiments: binding of SGCI to MASP enzymes.

With `CC[C@H](C)[C@@H]1NC(=O)[C@@H]2CCCN2C(=O)[C@@H]2CCCN2C(=O)[C@H](CC(C)C)NC(=O)[C@H](CO)NC(=O)[C@H](CCCNC(=N)N)NC(=O)[C@H](CO)NC(=O)[C@@H](NC(=O)[C@@H](NC(=O)CN)C(C)C)CSSC[C@@H](C(=O)N[C@@H](Cc2c[nH]c3ccccc23)C(=O)N2CCC[C@H]2C(=O)N[C@@H](CC(=O)O)C(=O)O)NC1=O` [M1-3E-Y12W] (H-GVCSRSLPPICWPD-OH; disulfide 3-11; N-terminus and C-terminus assumed), the Ki in [1] stood at 170 nM.

The compound `CC[C@H](C)[C@@H]1NC(=O)CNC(=O)[C@H](CC(=O)O)NC(=O)[C@@H]2CCCN2C(=O)[C@H]([C@@H](C)CC)NC(=O)[C@@H]2CSSC[C@H](NC1=O)C(=O)N[C@@H](CO)C(=O)N[C@@H](CCCNC(=N)N)C(=O)N[C@@H](CO)C(=O)N[C@@H](CC(C)C)C(=O)N1CCC[C@H]1C(=O)N1CCC[C@H]1C(=O)N[C@@H]([C@@H](C)CC)C(=O)N2` [M2-4G cyclic] (cyclo(CIPDGICSRSLPPI); disulfide 1-7) registered a Ki in experiment [1] of 350 nM.

`CC[C@H](C)[C@H](NC(=O)CN)C(=O)N[C@H]1CSSC[C@@H](C(=O)N[C@H](C(=O)N2CCC[C@H]2C(=O)N[C@@H](CC(=O)O)C(=O)O)[C@@H](C)CC)NC(=O)[C@H]([C@@H](C)CC)NC(=O)[C@@H]2CCCN2C(=O)[C@@H]2CCCN2C(=O)[C@H](CC(C)C)NC(=O)[C@H](CO)NC(=O)[C@H](CCCNC(=N)N)NC(=O)[C@H](CO)NC1=O` [M2-4G] (H-GICSRSLPPICIPD-OH; disulfide 3-11; N-terminus and C-terminus assumed): the “thrombin inhibition” value in experiment [2] was “poor thrombin inhibitor”. Further, the Ki in experiment [2] (read-out: Ki value on thrombin) came to 10000 nM. Besides, the “thrombin time, effect on coagulation” value in experiment [3] is given as “reached the extreme measuring value”. Also, the “prothrombin time, effect on coagulation” value in experiment [4] is reported as “reached the extreme measuring value”. In experiment [5], the “activated thromboplastin time, effect on coagulation” value is recorded as “reached the extreme measuring value”. Also, the “inhibition of the lectin pathway (C5-9 complex)” value in [6] was “efficient and specific inhibitors of the lectin pathway”. For the same compound, the “inhibition of the classical pathway (C5-9 complex)” value in experiment [7] is listed as “neither “S” peptide nor the “NS” peptide inhibited”. Further, the “inhibition of the alternative pathway (C5-9 complex)” value in [8] is listed as “neither “S” peptide nor the “NS” peptide inhibited”. In experiment [1], the Ki amounted to 260 nM and the “trypsin inhibition compared to wild-type SFTI-1” value is recorded as “much weaker on trypsin than wild-type SFTI-1”.

In experiment [1], `CC[C@H](C)[C@H](NC(=O)[C@@H]1CSSC[C@H](NC(=O)[C@H](CCSC)NC(=O)CN)C(=O)N[C@@H](CO)C(=O)N[C@@H](CCCNC(=N)N)C(=O)N[C@@H](CO)C(=O)N[C@@H](Cc2ccc(O)cc2)C(=O)N2CCC[C@H]2C(=O)N2CCC[C@H]2C(=O)N[C@@H](C(C)C)C(=O)N1)C(=O)N1CCC[C@H]1C(=O)N[C@@H](CC(=O)O)C(=O)O` [M2-6E-Y2M] (H-GMCSRSYPPVCIPD-OH; disulfide 3-11; N-terminus and C-terminus assumed) returned a Ki of 4000 nM.

Turning to `CC[C@H](C)[C@H](NC(=O)[C@@H]1CSSC[C@H](NC(=O)[C@H](Cc2c[nH]c3ccccc23)NC(=O)CN)C(=O)N[C@@H](CO)C(=O)N[C@@H](CCCNC(=N)N)C(=O)N[C@@H](CO)C(=O)N[C@@H](Cc2ccc(O)cc2)C(=O)N2CCC[C@H]2C(=O)N2CCC[C@H]2C(=O)N[C@@H](C(C)C)C(=O)N1)C(=O)N1CCC[C@H]1C(=O)N[C@@H](CC(=O)O)C(=O)O` [M2-6E-Y2W] (H-GWCSRSYPPVCIPD-OH; disulfide 3-11; N-terminus and C-terminus assumed), in experiment [1], the Ki worked out at 1700 nM.

`CC[C@H](C)[C@H](NC(=O)[C@@H]1CSSC[C@H](NC(=O)[C@H](Cc2ccc(O)cc2)NC(=O)CN)C(=O)N[C@@H](CO)C(=O)N[C@@H](CCCNC(=N)N)C(=O)N[C@@H](CO)C(=O)N[C@@H]([C@@H](C)CC)C(=O)N2CCC[C@H]2C(=O)N2CCC[C@H]2C(=O)N[C@@H](C(C)C)C(=O)N1)C(=O)N1CCC[C@H]1C(=O)N[C@@H](CC(=O)O)C(=O)O` [M2-6E-Y7I] (H-GYCSRSIPPVCIPD-OH; disulfide 3-11; N-terminus and C-terminus assumed): affinity in experiment [1] was put at a Ki of 160 nM.

Turning to `CC[C@H](C)[C@@H]1NC(=O)[C@@H]2CCCN2C(=O)[C@@H]2CCCN2C(=O)[C@H]([C@@H](C)CC)NC(=O)[C@H](CO)NC(=O)[C@H](CCCCN)NC(=O)[C@H]([C@@H](C)O)NC(=O)[C@@H](NC(=O)[C@H](CCCNC(=N)N)NC(=O)CN)CSSC[C@@H](C(=O)N[C@@H](Cc2ccccc2)C(=O)N2CCC[C@H]2C(=O)N[C@@H](CC(=O)O)C(=O)O)NC1=O` [wild-type SFTI, reference compound], the Ki in [2] worked out at 140000 nM.

For “SGCI: Schistocerca Gregaria Chymotrypsin Inhibitor, chymotrypsin inhibitor molecule fused to the SFTI library for monovalent phage display (EVTCEPGTTFKDKCNTCRCGSDGKSAACTLKACPQ)”, in experiment [9], the “inhibition of MASP enzymes” value is reported as “does not inhibit MASP enzymes”. In [10], the “binding to MASP enzymes” value is listed as “does not even bind to these enzymes”.

The Ki is a dissociation constant, usually derived from enzyme kinetics or from competition with a known ligand.
